The test system of experiment [1] is IL-1β Production of THP-1. Put plainly: Test on IL-1β production of THP-1 (LPS and ATP stimulation, ELISA). In kind it is cell-based. The settings on record: Homo sapiens; PMA-differentiated THP-1 cells, LPS 50 ng/mL and ATP 5 mM, 2 hours. The protocol:
50 ng/mL of PMA (phorbol myristate acetate, SIGMA, P1585) was added to THP-1 cells, and the cells were cultured at 37° C. for 2 days. […] LPS (Lipopolysaccharide, SIMGA, L2880) and ATP (Adenosine triphosphate, SIGMA, A2383) were added to final concentrations of 50 ng/mL and 5 mM, respectively, and the cells were cultured at 37° C. for 2 hours. The supernatant was collected, and the concentration of IL-1β was measured by an ELISA method (DuoSet ELISA human IL-1β, R&D Systems, DY201). […] The IC50 value was calculated by sigmoid […] model non-linear regression analysis.

Experiment [2] concerns IL-1β p17 in the cerebral spinal fluid. Put plainly: Test on IL-1β production in rat central nerve (LPS/BzATP intracisternal, CSF Western blot). The settings on record: oral.
Procedure: After 2 hours, the test compound was orally administered. After 1 hour, 50 μg/5 μL of BzATP (2′(3′)-O-(4-Benzoylbenzoyl)adenosine 5′-triphosphate triethylammonium salt, SIGMA, B6396) was intracisternally administered, and after 30 minutes, a cerebral spinal fluid was collected. The amount of IL-1β p17 in the cerebral spinal fluid was determined by a Western blotting method using an anti-IL-1β antibody (Millipore, AB1832P), and the inhibition ratio to the solvent administration group was calculated.

Each structure is given as a SMILES string.

With `Cc1c(NC[C@@H](C)O)nnc(-c2ccc(C(F)(F)F)cc2C(F)(F)F)c1C` [Example 4, (2R)-1-({6-[2,4-bis(trifluoromethyl)phenyl]-4,5-dimethylpyridazin-3-yl}amino)propan-2-ol], half-maximal inhibition in experiment [1] (IC50) required 210 nM. Also, the “IL-1β p17 inhibition ratio to the solvent administration group” value in experiment [2] (Dose 3 mg/kg) was found to be 68%; in experiment [2] (Dose 10 mg/kg), 93%; in experiment [2] (Dose 30 mg/kg), 100%.
Consider `Cc1c(NC[C@@H](C)O)nnc(-c2ccc(C(F)(F)F)cc2O)c1C` [Example 9, 2-(6-{[(R2R)-2-hydroxypropyl]amino}-4,5-dimethylpyridazin-3-yl)-5-(trifluoromethyl)phenol], for which the midpoint of inhibition in experiment [1], the IC50, lay at 14 nM. Further, the “IL-1β p17 inhibition ratio to the solvent administration group” value in experiment [2] (Dose 0.3 mg/kg) is 37%; in experiment [2] (Dose 1 mg/kg), 70%; in experiment [2] (Dose 3 mg/kg), 89%.
`CCc1cc(NC[C@@H](C)O)nnc1-c1ccc(C(F)(F)F)cc1O` [Example 64] gave an IC50 in experiment [1] of 33 nM.
In experiment [1], `Cc1c(NC[C@@H](C)O)nnc(-c2ccc(Cl)cc2O)c1C` [Example 65] had an IC50 of 49 nM.
The molecule `Cc1cc(NC[C@@H](C)O)nnc1-c1ccc(Cl)cc1O` [Example 66] registered an IC50 in experiment [1] of 47 nM.
`CCc1c(NC[C@@H](C)O)nnc(-c2ccc(C(F)(F)F)cc2O)c1CC` [Example 67]: in experiment [1], the IC50 turned out to be 170 nM.
Molecule `Cc1c(NCC(C)(C)O)nnc(-c2ccc(C(F)(F)F)cc2O)c1C` [Example 68, 2-{6-[(2-hydroxy-2-methylpropyl)amino]-4,5-dimethylpyridazine-3-yl}-5-(trifluoromethyl)phenol] yielded a concentration for half-maximal inhibition (IC50) in experiment [1] of 310 nM.
In experiment [1], `COc1ccc(-c2nnc(NC[C@@H](C)O)cc2C)c(O)c1` [Example 69] yielded an IC50 of 250 nM.
In experiment [1], `Cc1c(NCCCO)nnc(-c2ccc(C(F)(F)F)cc2O)c1C` [Example 70, 2-{6-[(3-hydroxypropyl)amino]-4,5-dimethylpyridazine-3-yl}-5-(trifluoromethyl)phenol] registered an IC50 of 36 nM.
`Cc1c(NCC(C)CO)nnc(-c2ccc(C(F)(F)F)cc2O)c1C` (stereo not drawn) [Example 71] had an IC50 in experiment [1] of 38 nM.
In experiment [1], `Cc1c(NC[C@H](C)O)nnc(-c2ccc(C(F)(F)F)cc2O)c1C` [Example 73] had an IC50 of 43 nM.
Regarding `CC(=O)NCCCCNc1nnc(-c2ccc(C(F)(F)F)cc2O)c(C)c1C` [Example 74], the IC50 in experiment [1] was 35 nM.
On the same count and under the same terms, in the case of `Cc1c(NC[C@H](C)CO)nnc(-c2ccc(C(F)(F)F)cc2O)c1C` [Example 75] it was 18 nM; in that of `Cc1c(NCC(C)CO)nnc(-c2ccc(Cl)cc2O)c1C` (stereo not drawn) [Example 77], 89 nM; in that of `C[C@@H](O)CNc1cc(C2CC2)c(-c2ccc(Cl)cc2O)nn1` [Example 78], 43 nM.
